Laboratory results reported in patent US10093706B2, “Dominant positive hnRNP-E1 polypeptide compositions and methods” (Indiana University Research and Technology Corporation, priority 2017, dated 2018).
Several values for one entry are separate records, joined by “and”; a condition that tells them apart may be missing. Identical values can stand only once.

Assays:
[1] = target: T1, RNA-protein complexes of GST-hnRNP-E1 and 25-nt hnRNP-E1 mRNA cis-element (Homo sapiens, UniProt Q15365, A205V); assay: Gel-shift assay: effect of thiols, iron and deferoxamine on RNA-protein complex formation; format: binding; details: fixed L-homocysteine
T1 construct: made in house; host or cells: Escherichia coli BL21
Experimental: Other studies assessed the effect of iron(II) or iron(III) on homocysteine-induced RNA-protein interactions.
Studies were conducted to evaluate the effect of iron(II) (as ferrous sulfate heptahydrate) or iron(III) (as ferric chloride hexahydrate) in modulating RNA-protein interactions during gel-shift assays in either the absence or presence of 10-mM glutathione. The iron preparation, either alone or with 50-μM of deferoxamine (DFO) to define the specificity of iron(II), was incubated first with glutathione and hnRNP-E1 before addition of other components of the reaction mixture. […] The samples were analyzed by PAGE and autoradiography overnight followed by densitometric analysis of the signals representing RNA-protein complexes.

[2] = target: T2, RNA-protein interaction of 25-nt hnRNP-E1 mRNA cis-element and GST-hnRNP-E1 (Homo sapiens, UniProt Q15365, A205V); assay: Influence of thiols or iron(II) on the KD of the RNA-protein interaction; format: binding; details: L-homocysteine present
T2 construct: made in house; host or cells: Escherichia coli BL21
Experimental: (§1) Specific binding was determined by subtracting values of non-specific binding with GST from those of total binding with GST-hnRNP-E1; (however, in Table 1 and FIG. 6G, non-specific binding using bovine serum albumin (BSA) was subtracted from total binding to GST-hnRNP-E1 to determine specific binding). The KD was calculated from a Scatchard plot using GraphPad Prism 6 from GraphPad Software (San Diego, Calif.), as previously described in the art.

hnRNP-E1 mRNA = assay: In vitro translation of hnRNP-E1; format: biochemical, human
Experimental: (§2) In vitro transcription-translation was carried out using the Linked SP6/T7 In Vitro Transcription/Translation Kit (Roche Applied Science) after addition of one of various targeted DNAs—pSPT18-25-hnRNP-E1 DNA, or Pst1-linearized plasmid pSPT18-folate receptor-α, or HPV16 L2 DNA, (0.5 μg/reaction)—to the transcription mix as described. In other experiments, the capacity for perturbing the interaction of hnRNP-E1 with the 25-nt hnRNP-E1 cis-element during in vitro translation was assessed in the presence of either scrambled oligonucleotides (5′-[…]-3′ SEQ ID NO:20) or specific antisense oligonucleotides (5′-[…]-3′ SEQ ID NO:21) generated against the 25-nt hnRNP-E1 mRNA cis-element (GenScript USA, Piscataway, N.J.).

[3] = target: [^35S]25-nt hnRNP-E1 mRNA cis-element; assay: Dissociation constant (KD) of GST-hnRNP-E1 or its mutant proteins for the 25-nt hnRNP-E1 mRNA cis-element; format: binding, human; details: L-Homocysteine 0 μM
Experimental: (§3) Methods for testing the ability of an engineered hnRNP-E1 variant polypeptide to bind to an RNA comprising the sequence of SEQ ID NO:6 are known in the art. Such methods include, but are not limited to, RNA electrophoretic mobility shift assays, as exemplified herein, RNA pull-down assays, and oligonucleotide-targeted RNase H protection assays. Such assays are conducted in the presence or absence of homocysteine to determine the RNA-binding dependence of any particular hnRNP-E1 polypeptide tested on the presence of homocysteine. […] Additional methods are outline in Tang et al. (“Incrimination of heterogeneous nuclear ribonucleoprotein E1 (hnRNP-E1) as a candidate sensor of physiological folate deficiency.” J Biol Chem. 2011; 286(45):39100-39115), which is incorporated herein in its entirety.
as §1

[4] = test system: 18-nt folate receptor-α mRNA cis-element-linked CAT reporter; assay: CAT reporter driven by 18-nt folate receptor-α mRNA cis-element, co-transfected with hnRNP-E1 plasmids in HeLa-IU1-HF cells; format: cell-based, human; details: pSV-β-gal normalization
Experimental: A plasmid containing CAT reporter DNA driven by an 18-nucleotide folate receptor-α mRNA cis-element, was constructed as previously described. Briefly, HeLa-IU1-HF cells were grown to 70-80% confluence and then co-transfected with CAT reporter DNA driven by an 18-nucleotide folate receptor-α mRNA cis-element and various construct combinations of either wild-type and mutant hnRNP-E1 plasmids using X-tremeGENE DNA transfection reagent (Roche Applied Science). The transfection reactions were set up with 6-μg DNA and 12-μL XtremeGENE DNA transfection reagent for each well. In these transfection experiments, pSV-ß-gal was used as an internal control to monitor the efficiency of transfection of cells. After 48 h cells were harvested for protein determination using the BCA protein assay (Pierce); ß-galactosidase activity by the ß-galactosidase chemiluminescent assay (Roche Diagnostics); and CAT activity using a CAT ELISA kit (Roche Diagnostics). All experiments were carried out 4 times with 3 replications per treatment. The data from non-transfected cells was used as a background and subtracted from that obtained with transfected cells. All data were normalized using the internal standard and protein concentration for each treatment.

[5] = test system: 25-nt hnRNP-E1 mRNA cis-element; assay: Gel-shift assay of hnRNP-E1 proteins with 25-nt hnRNP-E1 mRNA cis-element; format: binding, human; details: absence of L-homocysteine
Experimental: (§4) Parenthetically, there was no significant difference in RNA binding to GST-hnRNP-E1 by use of either 32P-RNA probes or 35S-labeled RNA probes used. Other studies assessed the effect of iron(II) or iron(III) on homocysteine-induced RNA-protein interactions.
(§5) Recombinant GST-plasmid DNA, pGST-hnRNP-E1, pGST-hnRNP-E2, and related engineered variant plasmids were transformed into BL21 Escherichia coli from Novagen (Madison, Wis.). After induction by 1 mM isopropyl-1-thio-ß-D-galactopyranoside, the GST-hnRNP-E1 and engineered variant fusion proteins were individually purified using the B-PER GST Fusion Protein Purification Kit (Pierce, Rockford, Ill.). The eluted GST fusion proteins were dialyzed against 500 volumes of buffer to remove excess reducing reagents (such as dithiothreitol (DTT)) and assayed by SDS-PAGE and Western blots using anti-peptide hnRNP-E1 antiserum. Gel shift assays with target RNA were carried out as described.

HPV16 L2 RNA = assay: In vitro translation of HPV16 L2 protein; format: biochemical, Human Papillomavirus type 16; details: after quenching excess ß-ME by NEM (2 mM)
Experimental: as §2
(§6) Construction of plasmids for generation of HPV16 L2 RNA, gel-shift and in vitro translation studies were carried as described with additional treatments shown in FIGS. 10A-10D

folate receptor-α mRNA = assay: In vitro translation of folate receptor-α; format: biochemical, human; details: presence of 2-mM NEM
Experimental: In vitro transcription-translation was carried out using the Linked SP6/T7 In Vitro Transcription/Translation Kit (Roche Applied Science) after addition of one of various targeted DNAs—pSPT18-25-hnRNP-E1 DNA, or Pst1-linearized plasmid pSPT18-folate receptor-α, or HPV16 L2 DNA, (0.5 μg/reaction)—to the transcription mix as described. In other experiments, the capacity for perturbing the interaction of hnRNP-E1 with the 25-nt hnRNP-E1 cis-element during in vitro translation was assessed in the presence of either scrambled oligonucleotides (5′-GCGTCGCTCGCTTCGCACGTGCGCC-3′ SEQ ID NO:20) or specific antisense oligonucleotides (5′-GGG AGC GAG CGG GCG GGA G-3′ SEQ ID NO:21) generated against the 25-nt hnRNP-E1 mRNA cis-element (GenScript USA, Piscataway, N.J.).

[6] = target: [^35S]18-nt folate receptor-α mRNA cis-element; assay: Dissociation constant (KD) of GST-hnRNP-E1 or its mutant proteins for the 18-nt folate receptor-α mRNA cis-element; format: binding, human; details: L-Homocysteine 0 μM; listed as (HA)-hnRNP-E1(C293 S)-mutant
Experimental: as §3, §1

[7] = test system: newly synthesized [^35S]hnRNP-E1 in placental 1584-HF cells; assay: Biosynthetic rate of hnRNP-E1 after protein transfection into placental 1584-HF cells; format: cell-based, human; details: protein transfected in placental 1584-HF cells
Description: (§7) Transfection of purified recombinant wild-type or various mutant hnRNP-E1 proteins into cells was achieved using the Xfect™ Protein Transfection Kit (Clontech, Mountain View, Calif.). Briefly, placental 1584-HF cells in 10-cm dishes at 70-80% confluence were transfected with 2.4-mL serum-free medium and Xfect Protein Transfection Reagent (1.2-mL) containing 20-μg of either wild-type hnRNP-E1-, or highest-affinity (HA)-hnRNP-E1(C293S)-mutant, or wild-type-like hnRNP-E1 (G292A)-mutant proteins and 2-μg of ß-galactosidase at 37° C. for 60-min. After cysteine-starvation for 4-h, an aliquot of cells were assessed for ß-galactosidase activity (to measure the efficiency of co-transfection of ß-galactosidase) and the remaining cells were pulsed with L-[^35S]cysteine (250-μCi) and assessed for specific [^35S]cysteine incorporated into folate receptor to determine the biosynthetic rate of this protein. A similar protocol was employed for analysis of newly synthesized [^35S]hnRNP-E1 using anti-hnRNP-E1 antiserum-coupled agarose and control agarose in order to derive values for specific [^35S]cysteine incorporated into hnRNP-E1 and thereby determine the biosynthetic rate of this protein.

[8] = test system: HPV16 L2 mRNA cis-element; assay: Gel-shift assay of hnRNP-E1 proteins with HPV16 L2 mRNA; format: binding, Human Papillomavirus type 16; details: absence of reducing agents; versus wild-type and G292A
Experimental: as §4, §6

[9] = test system: newly synthesized [^35S]folate receptors in placental 1584-HF cells; assay: Biosynthetic rate of folate receptors after protein transfection into placental 1584-HF cells; format: cell-based, human; details: protein transfected in placental 1584-HF cells
Description: as §7

[10] = test system: 18-nt folate receptor-α mRNA cis-element; assay: Gel-shift assay of hnRNP-E1 proteins with 18-nt folate receptor-α mRNA cis-element; format: binding, human; details: absence of homocysteine or other reducing agent
Experimental: as §4, §5

[11] = listed as (HA)-hnRNP-E1(C293S)-mutant

T1 sequence (Q15365 whole entry A205V, one chain of several): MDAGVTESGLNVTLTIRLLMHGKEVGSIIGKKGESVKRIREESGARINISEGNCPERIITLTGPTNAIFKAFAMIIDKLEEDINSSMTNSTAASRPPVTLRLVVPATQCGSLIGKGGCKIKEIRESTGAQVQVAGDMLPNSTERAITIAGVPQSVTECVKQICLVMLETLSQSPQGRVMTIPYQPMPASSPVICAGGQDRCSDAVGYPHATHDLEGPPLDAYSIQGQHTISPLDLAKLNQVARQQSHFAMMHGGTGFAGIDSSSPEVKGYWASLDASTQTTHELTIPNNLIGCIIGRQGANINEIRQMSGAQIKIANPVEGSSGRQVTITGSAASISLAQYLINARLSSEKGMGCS
T2 sequence (Q15365 whole entry A205V): as the sequence (Q15365 whole entry A205V, one chain of several) above

| Molecule | effect on RNA-complex formation ([1]; 10-mM glutathione) | effect on formation of RNA-protein complexes ([1]; no glutathione) | RNA-protein binding affinity (KD) [2] | effect on in vitro translation of hnRNP-E1 (hnRNP-E1 mRNA; agent added to translation mixture (4.1-mM ß-ME)) | Kd [3] [nM] | folate receptor-α cis-element-linked CAT activity versus wild-type hnRNP-E1 or G292A control [4] | RNA-protein gel-shift signal [5] | HPV16 L2 protein signal (HPV16 L2 RNA) | translation of folate receptor-α (folate receptor-α mRNA) | Kd [6] | [^35S]cysteine-hnRNP-E1 [7] [c fmol/mg protein/h] | increase in the rate of biosynthesis of [^35S]hnRNP-E1 [7] | [^35S]cysteine-hnRNP-E1 [7, 11] [fmol/mg protein/h] | interaction with HPV16 L2 mRNA on gel-shift assays [8] | [^35S]cysteine-folate receptor [9] [c fmol/mg protein/h] | [^35S]cysteine-folate receptor [9, 11] [fmol/mg protein/h] | increase of [^35S]folate receptors over controls ([9]; over wild-type and G292A controls) [fold] | translation of hnRNP-E1 in vitro (hnRNP-E1 mRNA; protein added after neutralizing ß-ME by N-ethylmaleimide) | RNA-protein signal [10] |
| --- | --- | --- | --- | --- | --- | --- | --- | --- | --- | --- | --- | --- | --- | --- | --- | --- | --- | --- | --- |
| O.O.O.O.O.O.O.O=S(=O)([O-])[O-].[Fe+2] [iron(II), ferrous sulfate heptahydrate] | comparable dose-dependent reduction in RNA-complex formation | dose-dependent inhibitory effect | dose-dependent reduction in RNA-protein binding affinity | dose-dependent impact in quenching the in vitro translation of hnRNP-E1 | – | – | – | – | – | – | – | – | – | – | – | – | – | – | – |
| GST-hnRNP-E1(C293S): highest-affinity mutant, cysteine-293 to serine in the KH3 domain of hnRNP-E1 (SEQ ID NO:2) | – | – | – | – | 0.39 | two and one-half times stronger | strong signal | progressive reduction in signal | maximally increased | 0.27 nM and 0.2 nM | 6.70 ± 1.74 | over 6 fold | 6.70 | greater interaction | 6.62 ± 0.74 | 6.62 | ~4 | markedly stimulated translation of hnRNP-E1 in vitro | strongest RNA-protein signal |
